Here are results for ten molecules from patent EP0639183B1, “NITROGEN OXIDES OF AZA- AND DIAZA-ANTHRACENEDIONE DERIVATIVES, THEIR PREPARATION AND THEIR USE AS ANTITUMOR AGENTS” (BOEHRINGER MANNHEIM ITALIA S.P.A., priority 1991, dated 1992).

Converted amounts (≈) assume the structure as drawn. “And” between values parts separate entries of the source, which are not always exact repeats. Equal values may be shown once. Read-outs that look alike come from different tables or passages of the source.

The subject of series [1] is murine L 1210 leukemia. As to conditions: cited from earlier work.
Series [2] deals with murine L 1210 leukemia. As to conditions: cited from earlier work; for in vivo T/C: murine L 1210 leukemia.
In series [3] the test system is P 388 MURINE LEUKEMIA
The series can be described thus: P 388 murine leukemia model in vivo (iv/iv 1,4,7). More on the design: species or system CD2Fl mice. Here is the method:
Studies of the biological activity "in vivo" of representative compounds of the invention were performed using the P 388 and L 1210 murine leukemia models.
P 388 Murine leukemia cells were intravenously (iv) injected in CD2Fl mice. Treatment was initiated approximately 24 hours after tumor transplantation and dosages of the drug were administered iv according to preestablished protocols, usually at 3-day intervals. The studies were done over a 60 day period and the date of death for each animal was recorded. The % T/C was determined using the median survival time (MST) for each group according to the formula % T/C = [(MST treated)/(MST control)] x 100. [formula]

For series [4], the system named is MURINE LEUKEMIA L1210. Briefly: L 1210 murine leukemia model in vivo (iv/iv 1,4,7). On the set-up: species or system CD2Fl mice. Here is the method:
The antitumor activity of representative compounds of this invention was evaluated also in the L 1210 murine leukemia model.
L 1210 leukemia cells were intravenously (iv) injected in CD2Fl mice and treatment was initiated approximately 24 hours after tumor transplantation. Dosages of the drugs were administered iv according to preestablished protocols, usually at 3-day intervals. The studies were done over a 60-day period and the date of death for each animal was recorded. The % T/C was determined using the median survival time (MST) for each group according to the formula % T/C = [(MST treated)/(MST control)] x 100. [formula]

Series [5] deals with Lovo/DX. The series can be described thus: in vitro cytotoxic activity, MTT assay, resistant subline Lovo/DX. The format is cell-based, human. As to conditions: for resistance index RI (ratio of the IC50 for the resistant cell line to the IC50 for the sensitive cell line): Lovo/DX versus Lovo. Here is the method: (§1) The evaluation of the "in vitro" cytotoxic activity of the compounds of the invention was performed using a human colon adenocarcinoma cell line (Lovo) isolated from a metastatic nodule and a subline with aquired resistance to a number of antitumor agents, among which doxorubicin, VP-16 and vincristine. […] Cancer, (1986), 54, 515). The compounds were tested according to the MTT assay (Mosman, T. "Rapid Colorimetric assay for cellular growth and survival: application to proliferation and cytotoxicity assay", J. Immunol. Methods, (1983), 65, 55-63; Green. L.M., "Rapid Colorimetric assay for cell viability; application to the quantitation of cytotoxic and growth inhibitory lymphokines", J. Immunol. Methods, (1984), 70, 257-268) in comparison with ametantrone and doxorubicin.

Series [6] has as its system human colon adenocarcinoma cell line (Lovo). The series can be described thus: in vitro cytotoxic activity, MTT assay, Lovo cell line. The format is cell-based. The note with it: 144 hours drug-exposure. Here is the method: as §1
For orientation: Tetrazolium dyes change colour on reduction, which living cells bring about.

The conditions of series [7]: in animals; cited from earlier work.
The mark [8] stands for this setting: P 388, iv on days 1,4,7, Dose 18 mg/kg/day.
The mark [9] stands for this setting: P 388, iv on days 1,4,7, Dose 27 mg/kg/day.
Where [10] appears, read: L1210, iv on days 1,4,7, Dose 40 mg/kg/day.
[11] abbreviates: L1210, iv on days 1,4,7, Dose 60 mg/kg/day.
Setting [12] is: P 388, iv on days 1,4,7, Dose 2 mg/kg/day.
Setting [13] is: P 388, iv on days 1,4,7, Dose 3 mg/kg/day.
Setting [14] is: P 388, iv on days 1,4,7, Dose 4 mg/kg/day.
Where [15] appears, read: L1210, iv on days 1,4,7, Dose 2 mg/kg/day.
Where [16] appears, read: L1210, iv on days 1,4,7, Dose 3 mg/kg/day.

Take `CN(C)CCNc1ccc(NCCN(C)C)c2c1C(=O)c1cccnc1C2=O` [Compound 5a]: the “in vitro ID50” value in series [1] was 0.16 µg/mL. Besides, the “antitumor activity in vivo (in words)” value in series [2] (as reported in table II) was “inactive in vivo”. In addition, the “in vivo T/C” value in series [2] (Dose 50 mg/kg) was 130.
As to `CN(C)CCCNc1ccc(NCCCN(C)C)c2c1C(=O)c1cccnc1C2=O` [Compound 5c], the “in vitro ID50” value in series [1] is 1.7 µg/mL.
Consider `CN(C)CCNc1ccc(NCCN(C)C)c2c1C(=O)c1ccccc1C2=O` [Compound 6a], for which, in series [1], the “in vitro ID50” value was 0.08 µg/mL. In addition, the “in vivo T/C” value in series [2] (Dose 30 mg/kg) was 150.
Regarding `CCN(CC)CCNc1ccc(NCCN(CC)CC)c2c1C(=O)c1ccccc1C2=O` [Compound 6b], the “in vitro ID50” value in series [1] is 0.30 µg/mL.
Regarding `NCCNc1ccc(NCCN)c2c1C(=O)c1cc[n+]([O-])cc1C2=O.O=C(O)/C=C\C(=O)O.O=C(O)/C=C\C(=O)O` [Compound 7b, 6,9-bis[N-(2-aminoethyl)amino]benzo[g]isoquinoline-5,10-dione-2-oxide dimaleate], the “T/C% (range)” value in series [3] (setting [8]) is 122%; in series [3] (setting [9]) it was 133%; in series [3] (P 388, iv on days 1,4,7, Dose 40 mg/kg/day, dimaleate, 40 mg/kg/day) it was 144% and 166% and 194%; in series [3] (P 388, iv on days 1,4,7, Dose 60 mg/kg/day, dimaleate, 60 mg/kg/day), 200% and 225%; in series [3] (P 388, iv on days 1,4,7, Dose 80 mg/kg/day, dimaleate, 80 mg/kg/day), 211% and 262%; in series [4] (setting [10]), 266%. Besides, the “T/C% (range)” value in series [4] (setting [11]) came out at 333%. The “TOX (Number of toxic deaths/total number of mice)” value is 0/8 in series [3] (setting [8]); 0/8 in series [3] (setting [9]); 1/24 in series [3] (P 388, iv on days 1,4,7, Dose 40 mg/kg/day); 0/17 in series [3] (P 388, iv on days 1,4,7, Dose 60 mg/kg/day); 4/17 in series [3] (P 388, iv on days 1,4,7, Dose 80 mg/kg/day); 0/8 in series [4] (setting [10]). In addition, the “TOX (Number of toxic deaths/total number of mice)” value in series [4] (setting [11]) is 0/10. Also, the LTS in series [4] (setting [10]) is 0/8; in series [4] (setting [11]), 0/10.
For `COc1cccc2c1C(=O)c1c(O)c3c(c(O)c1C2=O)C[C@@](O)(C(=O)CO)C[C@@H]3O[C@H]1C[C@H](N)[C@H](O)[C@H](C)O1` [doxorubicin], in series [5], the “resistance index RI (ratio of the IC50 for the resistant cell line to the IC50 for the sensitive cell line)” value is given as 142.7.
Regarding `CCN(CC)CCNc1ccc(NCCN(CC)CC)c2c1C(=O)c1cccnc1C2=O` [Compound 5b], the “in vitro ID50” value in series [1] is 2.4 µg/mL. The “in vivo T/C” value in series [2] (Dose 100 mg/kg) was “toxic”.
As for `CN(C)CCNc1ccc(NCCN(C)C)c2c1C(=O)c1cc[n+]([O-])cc1C2=O` [Compound 7a, 6,9-bis[N-(2-dimethylaminoethyl)amino]benzo[g]isoquinoline-5,10-dione-2-oxide], the IC50 in series [6] is 0.44 µg/mL (≈ 1.11 µM); in series [5] (Homo sapiens, Lovo/DX resistant subline) it was 2.68 µg/mL (≈ 6.74 µM). In series [5], the “resistance index RI (ratio of the IC50 for the resistant cell line to the IC50 for the sensitive cell line)” value amounted to 6.1.
For `O=C1c2ccccc2C(=O)c2c(NCCNCCO)ccc(NCCNCCO)c21` [ametantrone, 1,4-bis{[2-(2-hydroxyethylamino)ethyl]amino]anthracene-9,10-dione], inhibition in series [6] was half-maximal at 0.33 ± 0.1 µg/mL (≈ 0.8 µM) (IC50). Besides, the “resistance index RI (ratio of the IC50 for the resistant cell line to the IC50 for the sensitive cell line)” value in series [5] is 101.2. The “less potent and cardiotoxic than mitoxantrone” value in series [7] was “about 10 fold”.
`O=C1c2c(O)ccc(O)c2C(=O)c2c(NCCNCCO)ccc(NCCNCCO)c21` [MITOX, 5,8-dihydroxy-1,4-bis([2-(2-hydroxyethylamino)ethyl]amino]anthracene-9,10-dione]: the “T/C% (range)” value in series [3] (setting [12]) is on record as 171(154-212) %; in series [3] (setting [13]), 185(167-217) %; in series [3] (setting [14]) it was 118(89-133) %; in series [4] (setting [15]) it was 208%; in series [4] (setting [16]), 216%. Further, the “TOX (Number of toxic deaths/total number of mice)” value in series [3] (setting [12]) is 0/50; in series [3] (setting [13]), 12/84; in series [3] (setting [14]), 20/24; in series [4] (setting [15]), 0/8; in series [4] (setting [16]), 0/8. The LTS in series [4] (setting [15]) and in series [4] (setting [16]) was 0/8 each time.

By IC50 is commonly meant the concentration that gives 50% inhibition. Higher therefore signals a need for much substance.
